The values that follow come from patent US20250177366A1, “COMPOSITIONS AND METHODS FOR ALLEVIATING PAIN AND REDUCING ADVERSIVENESS OF STIMULI” (UNIVERSITY OF WASHINGTON, priority 2021, published 2025).

Holding throughout (format): in vivo, Zebrafish (Danio rerio)
The subject of assay [1] is larval zebrafish. As to the kind of experiment: AITC aversion assay (chemical attraction/aversion, AITC-infused agarose). The following applies: for effect of co-applied drug on AS1-induced attraction to AITC / AITC aversion, drug alone: AITC 100 mM in agarose; for effect of co-applied drug on AS1-induced attraction to AITC: drug + AS1 (5 μM; 2.5 μM with SKF and sumanirole); for AITC aversion, drug alone: without AS1. The source says:
Whether the effects of AS1 extended beyond noxious temperature sensation or could also impact other somatosensory modalities was next explored. To accomplish this, a chemical attraction/aversion assay where a thin layer of agarose was deposited along the edges of a square arena (Jordi et al., Sci. Adv. 2018; 4:1-15) were adapted. Along one wall, the agarose contained the chemical to be tested, while the other three walls were lined with control agarose. It was anticipated that a chemical gradient would be established as chemical diffused from the agarose into the surrounding water. Larvae were pre-incubated in either vehicle or AS1 and then added to the arena and the distance of each larva from the chemical-infused agarose was measured. In control experiments where all four walls of the arena were lined with agarose only, AS1 and vehicle-treated larvae were dispersed evenly throughout the arena (FIG. 3). […] When the nociceptive chemical AITC (100 mM, 10,000× maximal effective dose) was tested, vehicle-treated larvae swam away from the AITC source.
(§1) Chemical attraction/aversion assays. The agarose attraction/aversion assay was adapted from previously described experiments (Jordi et al., Sci. Adv. 2018; 4:1-15). For the AITC aversion assay, AITC and DMSO were added to molten 0.8% agarose to achieve a final concentration of 100 mM AITC and 2% DMSO. For the AS1 attraction/aversion assay, AS1 and DMSO were added to 0.8% molten agar to achieve final concentrations of 50 mM and 2%, respectively. To construct the test chambers, the lids of 10×10 cm square petri dishes (insert cat #and company) were lined on four sides with either the test (chemical-containing) or plain agarose (300 μL per side) and allowed to solidify. For all experiments, 30-40 randomly selected 6 dpf zebrafish were caught with a 10 mL pipette pump (Bel-Air Products, cat #: 13683C) equipped with a glass wide-bored Pasteur pipet (Fisher Scientific, cat #: 22-037-540) and deposited into a standard 10 cm diameter petri dish (Fisher Scientific, cat #: 07-202-031). As much E2 media as possible was carefully removed using the same pipette. For single incubation experiments, 30 mL of 1× solutions of the control or test chemical was added to each petri dish, and fish were incubated for 10 minutes at 28.5° C. For double incubation experiments, 15 mL of 1× solutions containing control (DMSO) or test chemicals was added to the larvae-containing petri dish. Following a ten minute incubation, 15 mL of the second incubation solution (1× control or test chemical +/−2× AS1) was added to the petri dish, and the fish were incubated for a second ten minute block. The final concentration of DMSO in all solutions was 1%. In all double-incubation experiments, the final concentration of AS1 was 5 μM unless otherwise noted. After completion of the last incubation period, the contents of each petri dish were poured into separate agarose-lined square dishes. Swimming behavior was immediately recorded for 20 minutes using the same high-definition camcorder in the thermal preference assays.

In assay [2] the test system is larval zebrafish. As to the kind of experiment: Light/dark preference (phototaxis) assay. Particulars: for effect of co-applied drug on AS1-induced preference for the dark: drug + 2.5 μM AS1; for light/dark preference, drug alone: without AS1. Here is the method:
Following this, whether the effects of AS1 were restricted to somatosensation or were generalizable to other aversive stimuli were tested. Thus, the effects of AS1 on light/dark preference were tested. Zebrafish larvae prefer white light environments to dark environments and this preference is inhibited by anxiolytics, analagous to studies in rodents (Lau et al., Proc. Natl. Acad. Sci. U.S.A 2011; 108:2581-2586; Burgess et al., Curr. Biol. 2010; 20:381-386). To measure light/dark preference, larval zebrafish were placed in a square arena and given the choice between a bright white light and total darkness, and the number of larvae on each side was quantified at 30 second intervals. Five 4-minute trials were performed, where the light and dark sides of the arena were reversed between trials. […] Given the precise control over stimulus luminosity in this assay, the effects of altering the intensity of the dark stimulus were explored next. In this gradient version of the phototaxis assay, larval zebrafish were given the choice between a bright white environment and one of six potential shades of darkness, ranging from light gray to solid black. […] This implies that the valence of non-painful noxious stimuli is precisely encoded in an intensity-dependent manner, and that AS1 exerts its effects in proportion to the intensity of the stimulus.
Light/dark preference (phototaxis) assay. In the light/dark preference assay, randomly-selected 6 dpf larval zebrafish (N of 30 to 40) were carefully pipetted onto a 10 cm square petri dish using a 10 mL pipette pump equipped with a glass wide-bored Pasteur pipet. As much E2 media as possible was carefully removed using the same pipet. For single incubation experiments, 30 mL of 1× solutions of the control or test chemical was added to each petri dish, and fish were incubated for 10 minutes at 28.5° C. For double incubation experiments, 15 mL of 1× solutions containing control (DMSO) or test chemicals was added to the larvae-containing petri dish. Following a ten-minute incubation period, 15 mL of the second incubation solution (1× control or test chemical +/−2× AS1) was added to the petri dish, and the fish were incubated for a second ten minute block. The final concentration of DMSO in all solutions was 1%. In all double-incubation experiments, the final concentration of AS1 was 2.5 μM. These petri dishes were then positioned over a horizontally-oriented computer monitor displaying a PowerPoint presentation. For standard light/dark preference assays, a blank white slide was initially presented for one minute, after which the presentation would automatically advance to a slide in which half of the display was black. The petri dish with larvae was positioned such that exactly half was directly over the dark side, and the other half was directly over the light side. After four minutes, the presentation automatically advanced to a slide in which the black and white halves switched places. A total of five four-minute trials, with the dark/light halves automatically switching position between trials, were recorded. For the gradient phototaxis assay, experiments were performed identically, except that the “dark” half of the powerpoint presentation was one of six shades of gray.
In all experiments, an initial still frame of video was taken during the minute where the blank slide was presented in order to quantify the total number of fish in the experiment. Following this, still frames were taken at 30 second intervals for each trial ([…]), and the number of fish present in the light half of the arena were counted. To generate the graphs that looked at swimming patterns over time in a trial (e.g., FIG. 3D), the average percentage of fish in the light at each time point (T=0, T=30, etc.) was calculated across all five trials. […]

The subject of assay [3] is larval zebrafish. As to the kind of experiment: Thermal preference assay (28.5° C. vs 37.5° C.), non-sensitized. Particulars: for effect of co-applied drug on AS1-induced attraction to noxious heat / temperature choice, drug alone: 28.5° C. vs 37.5° C.; for effect of co-applied drug on AS1-induced attraction to noxious heat / effect of co-applied drug on swimming velocity of AS1-treated fish: drug + 5 μM AS1; for temperature choice, drug alone: without AS1; for effect of co-applied drug on swimming velocity of AS1-treated fish: 28.5 and 37.5° C. zones. How it is done:
Thermal preference assay. […] Once an entire plate was loaded with fish, the appropriate incubation solution was added. […] Following incubation in all experiments, the choice testing plate was transported to a dual solid-state heat/cool plate (AHP-1200° C. P; Teca) and centered such that half of each arena was positioned over each side of the heat/cool plate. […] Locomotor behavior was recorded using a Canon high-definition video camcorder suspended at a fixed position above the choice testing plate. Each trial was four minutes in duration.
For single-incubation assays (e.g. testing single chemicals), larval zebrafish were caught in 100 μL E2 media and 100 μL of the control (2% DMSO) or test chemical at 2× concentration was added to each well to achieve the final desired concentration. […] The final DMSO concentration in all solutions was 1%.

The test system of assay [4] is larval zebrafish. As to the kind of experiment: Chemical attraction/aversion assay with the test chemical itself as source (inherent attractiveness). The following applies: 2 mL in trough of 3D-printed arena; SKF 25 μM; AS1 10 μM-1 mM.
Source text: To confirm that AS1 itself was not attractive, the chemical attraction/aversion assay was used. […] Since the assay was modified to accommodate the inability to dissolve SKF into agarose at high concentrations (see Materials and Methods), the inherent attractiveness of AS1 was re-tested using this new format.
as §1, with “Following a ten minute incubation, 15 mL of the second incubation solution (1× control or test chemical +/−2× AS1) was added to the petri dish, and the fish were incubated for a second ten minute block. The final concentration of DMSO in all solutions was 1%. In all double-incubation experiments, the final concentration of AS1 was 5 μM unless otherwise noted. After completion of the last incubation period, the contents of each petri dish were poured into separate agarose-lined square dishes.” left out
For the SKF attraction/aversion assay, custom 10 cm×10 cm plates using clear resin (Formlabs, cat #: RS-F2-GPCL-04) and a Form 3+3D printer (Formlabs, cat #: PKG-F3-WSVC-BASIC) were designed. […] Swimming behavior was then recorded for 20 minutes. […]

On to `C=CCN1CC[C@]23c4c5ccc(O)c4O[C@H]2C(=O)CC[C@@]3(O)[C@H]1C5` [Naloxone, naloxone], for which, in the assay with larval zebrafish [1], the “effect of co-applied drug on AS1-induced attraction to AITC” value (from here on “effect of co-applied drug … to AITC”) was “did not reverse AS1-induced attraction towards AITC” and the “AITC aversion, drug alone” value is recorded as “did not affect AITC avoidance”. Besides, in the assay on larval zebrafish [2], the “effect of co-applied drug on AS1-induced preference for the dark” value (shortened to “effect of co-applied drug … for the dark”) is “significantly preferred the dark, regardless of whether 1 μM naloxone was applied” and the “light/dark preference, drug alone” value is reported as “significantly chose the light side of the arena”. Besides, in the assay on larval zebrafish [3], the “effect of co-applied drug on AS1-induced attraction to noxious heat” value (“effect of co-applied drug … to noxious heat” for short) was “significantly chose the 37.5 °C side” and the “temperature choice, drug alone” value is “significantly chose the 28.5 °C side of the arena”.
On to `CN1CCc2cc(Cl)c(O)cc2[C@@H](c2ccccc2)C1` [SCH23390], for which the “concentrations that partially attenuate AS1-induced attraction to AITC” value with larval zebrafish [1] (SCH 1-20 μM + 5 μM AS1) is not below 5 µM. For the same molecule, in the assay on larval zebrafish [2] (SCH 10-20 μM + 2.5 μM AS1), the “concentration abolishing AS1-induced preference for the dark entirely” value was 15 µM.
As to `C=CCN1CCc2c(cc(O)c(O)c2Cl)C(c2ccccc2)C1` (centres unmarked) [SKF82958], in the assay with larval zebrafish [1], the “effect of co-applied drug … to AITC” value is recorded as “did block AS1-induced preference to this chemical irritant” and the “AITC aversion, drug alone” value is reported as “had little effect upon aversion to AITC”. For the same molecule, the “inherent attractiveness of chemical deposited into trough” value with larval zebrafish [4] is recorded as “mildly attractive”. For the same molecule, in the assay on larval zebrafish [2], the “effect of co-applied drug … for the dark” value is listed as “reversed dark preference in fish that were treated with AS1” and the “light/dark preference, drug alone” value is recorded as “slight decrease in the proportion of fish found in the light by itself”. Moreover, in the assay on larval zebrafish [3], the “effect of co-applied drug on swimming velocity of AS1-treated fish” value is “reduced the swimming velocity of AS1-treated zebrafish in the 28.5 °C zone”; the “effect of co-applied drug … to noxious heat” value was “significantly attenuated the amount of time AS1-treated fish spent at 37.5 °C”; the “temperature choice, drug alone” value was “slight potentiation of preference for the 28.5 °C side”.
As for `CCN1CCCC1CNC(=O)c1cc(S(N)(=O)=O)ccc1OC` (centres unmarked) [sulpiride], in the assay with larval zebrafish [1], the “effect of co-applied drug … to AITC” value was “had no effect” and the “AITC aversion, drug alone” value is on record as “had no effect”. Besides, in the assay on larval zebrafish [2], the “effect of co-applied drug … for the dark” value is on record as “had no effect” and the “light/dark preference, drug alone” value is “had no effect”. Besides, in the assay on larval zebrafish [3], the “effect of co-applied drug on swimming velocity of AS1-treated fish” value was “had no effect”; the “effect of co-applied drug … to noxious heat” value is on record as “had no effect”; the “temperature choice, drug alone” value is recorded as “had no effect”.
Turning to sumanirole maleate, in the assay on larval zebrafish [1], the “effect of co-applied drug … to AITC” value was “did seem to attenuate AS1-mediated attraction to AITC, but only at higher concentrations” and the “AITC aversion, drug alone” value is “had little effect alone in the chemical aversion assay”. Moreover, in the assay on larval zebrafish [2], the “effect of co-applied drug … for the dark” value is listed as “had no effect” and the “light/dark preference, drug alone” value is on record as “had no effect”. Further, in the assay on larval zebrafish [3], the “effect of co-applied drug … to noxious heat” value is “had no effect” and the “temperature choice, drug alone” value is recorded as “had no effect”.
